According to patent publication US8546421B1, “Oncogenic-RAS-signal dependent lethal compounds” (The Trustees of Columbia University in the City of New York, priority 2007, dated 2013):
≈ marks a conversion by molar mass, not a printed value.

Tests used:
Calu-1 = assay: Alamar Blue assay, additional cell lines; assay type: cell-based, human; conditions: Calu-1, Non-small cell lung carcinoma, Alamar Blue
Text: (§1) The results of this additional testing are summarized in Tables 7-10 (no additional cell lines were identified as sensitive for Compound 3). […] The tumor type, cell line, maximum percentage inhibition, the concentration of compound required to inhibit cell growth by 50%, and RAS mutation (if any) are also summarized.

PaCa-2 = assay: Alamar Blue assay, additional cell lines; assay type: cell-based, human; conditions: Pancreatic Cancer
Text: as §1

[1] = system: BJ-TERT/LT/ST/RAS^V12 cells; assay: Alamar blue growth inhibition in dilution series; assay type: cell-based, human; conditions: Homo sapiens, alamar blue
[2] = system: A549, Calu-1, PaCa, and HCT116 cells; assay: Alamar blue assay in KRAS-mutation-harboring cancer cells; assay type: cell-based, human
Protocol: A549, Calu-1, HCT116 and MIA PaCa-2 cell lines have an oncogenic mutation in the KRAS gene. Compounds which tested positive in the oncogenic HRAS primary screen were also tested for their selectivity against oncogenic KRAS which is more commonly mutated in human cancers.

NCI-H23 = assay: NCI60 anti-cancer screening
HCT-116 = assay: NCI60 anti-cancer screening
LOX IMVI = assay: NCI60 anti-cancer screening
M14 = assay: NCI60 anti-cancer screening
SK-MEL-2 = assay: NCI60 anti-cancer screening
UACC-257 = assay: NCI60 anti-cancer screening
786-0 = assay: NCI60 anti-cancer screening; conditions: for GI 100% / GI50: 786-0; for GI 100%: Renal Cancer; for GI50 / CC50: Homo sapiens; for CC50: 786-0, read-out: LC 50%
ACHN = assay: NCI60 anti-cancer screening
RXF393 = assay: NCI60 anti-cancer screening
PC-3 = assay: NCI60 anti-cancer screening
MDA-MB-231/ATCC = assay: NCI60 anti-cancer screening
MDA-MB-435 = assay: NCI60 anti-cancer screening
BT-549 = assay: NCI60 anti-cancer screening; conditions: for GI 100% / GI50: BT-549; for GI 100%: Breast Cancer; for GI50 / CC50: Homo sapiens; for CC50: BT-549, read-out: LC 50%
[3] = system: BJ cell system (BJ-TERT, BJ-TERT/LT/ST, BJ-TERT/LT/ST/RAS^V12, DRD cells); assay: Alamar blue potency and selectivity in the engineered BJ cell system; conditions: oncogenic-RAS-expressing vs non-oncogenic-RAS-expressing BJ cells; alamar blue
Protocol: Empty “step-daughter plates” were filled with 50 μL DMEM, except for columns 3 and 13, where 100 μL of hit compound solution were cherry-picked from daughter plates. After compound transfer, 2-fold dilution series across columns 3 through 12 and columns 13 through 22 was made by transferring 50 μL of compound solution to the next column successively (10-point dilution series), with extensive mixing. Hit-picking and 2-fold dilution series were carried out using Biomek FX Span-8 module (Beckman Coulter). Assay plates were prepared by seeding 1,000 BJ-TERT, BJ-TERT/LT/ST, and BJ-TERT/LT/ST/RAS^V12 cells per well in 36 μL growth medium. Cells in assay plates were treated with compounds from step-daughter plates by transferring 4 μL. The final concentration of the compound was 5.33 μg/mL to 0.01 μg/mL in this 10-point, 2-fold dilution series. Assay plates were returned to the culture incubator and maintained for 48 hours before adding alamar blue.
Fresh daughter plates were made from the mother plate and cherry-picked hits from the first round, 2-fold dilution series experiment as described above. Assay plates were prepared by seeding 1,000 BJ-TERT, BJ-TERT/LT/ST, BJ-TERT/LT/ST/RAS^V12 or BJ-TERT/p53DD/CDK4/cyclinD1/ST/RAS^V12 (DRD) cells per well in 32 μL growth media. Cells in the assay plates were treated with compounds from the step-daughter plate by transferring 8 μL solution. The final concentration of the compound was 10.66 μg/mL to 0.02 μg/mL in a 10-point, 2-fold dilution series manner. Assay plates were returned to the culture incubator and maintained for 48 hours before adding alamar blue.
Cells were seeded in 384-well assay plates, treated with candidate compounds, and incubated in the culture incubator in 40 μL culture volume per well. […] Plates were incubated further for 16 hours to allow reduction of alamar blue, which results in the generation of red fluorescence. The fluorescence intensity was determined using a Victor 3 plate reader (Perkin Elmer) with a 535 nm excitation filter and a 590 nm emission filter.
In the subsequent two-fold dilution series testing, selectivity was calculated as the ratio of GI50 values in BJ-TERT/LT/ST and BJ-TERT/LT/ST/RAS^V12 cells. […] DRD cells are also derived from BJ primary cells and the effects of mutations in both lines should be similar.

A498 = assay: NCI60 anti-cancer screening
NCI/ADR-RES = assay: NCI60 anti-cancer screening

CCc1c(O)c2c(c(O)c1O[C@H]1O[C@@H](COC(C)=O)[C@H](OC(C)=O)[C@@H](CC(C)=O)[C@@H]1OC(C)=O)C(=O)C(O[C@@H]1O[C@H](COC(C)=O)[C@@H](OC(C)=O)[C@H](OC(C)=O)[C@H]1OC(C)=O)=C(O[C@@H]1O[C@H](COC(C)=O)[C@@H](OC(C)=O)[C@H](OC(C)=O)[C@H]1OC(C)=O)C2=O [Compound 6]
Maximum Inhibition % (Calu-1): 100%
GI50 (Calu-1; Homo sapiens): 2.5 µM
GI50 (PaCa-2; Homo sapiens): 0.6 µM
Maximum Inhibition % (PaCa-2): 100%
IC90 [1]: 2.5 µg/mL (≈ 1.99 µM)
activity in KRAS-mutation-harboring cancer cells (in words) [2]: reasonable potency
GI50 (NCI-H23; Homo sapiens, NCI-H23): 4.17 µM
CC50 (NCI-H23; Homo sapiens, NCI-H23, read-out: LC 50%): > 10 µM
GI 100% (NCI-H23; NCI-H23, Non-small cell lung carcinoma): >10 µM
GI 100% (HCT-116; HCT-116, Colon Cancer): 1.32 µM
GI50 (HCT-116; Homo sapiens, HCT-116): 0.376 µM
CC50 (HCT-116; Homo sapiens, HCT-116, read-out: LC 50%): 3.64 µM
GI50 (LOX IMVI; Homo sapiens): 1.73 µM
CC50 (LOX IMVI; Homo sapiens, read-out: LC 50%): 6.25 µM
GI 100% (LOX IMVI; Melanoma): 3.29 µM
GI50 (M14; Homo sapiens, M14): 2.07 µM
CC50 (M14; Homo sapiens, M14, read-out: LC 50%): 9.28 µM
GI 100% (M14; M14, Melanoma): 4.38 µM
GI50 (SK-MEL-2; Homo sapiens, SK-MEL-2): 2.32 µM
CC50 (SK-MEL-2; Homo sapiens, SK-MEL-2, read-out: LC 50%): > 10 µM
GI 100% (SK-MEL-2; SK-MEL-2, Melanoma): 6.87 µM
GI50 (UACC-257; Homo sapiens, UACC-257): 2.78 µM
CC50 (UACC-257; Homo sapiens, UACC-257, read-out: LC 50%): > 10 µM
GI 100% (UACC-257; UACC-257, Melanoma): >10 µM
GI 100% (786-0): 5.54 µM
GI50 (786-0): 2.51 µM
CC50 (786-0): > 10 µM
GI50 (ACHN; Homo sapiens): 8.76 µM
CC50 (ACHN; Homo sapiens, read-out: LC 50%): > 10 µM
GI 100% (ACHN; Renal Cancer): >10 µM
GI50 (RXF393; Homo sapiens, RXF 393): 0.652 µM
CC50 (RXF393; Homo sapiens, RXF 393, read-out: LC 50%): 6.6 µM
GI 100% (RXF393; RXF393, Renal Cancer): 2.41 µM
GI50 (PC-3; Homo sapiens, PC-3): 5.07 µM
CC50 (PC-3; Homo sapiens, PC-3, read-out: LC 50%): > 10 µM
GI 100% (PC-3; PC-3, Prostate Cancer): >10 µM
GI50 (MDA-MB-231/ATCC; Homo sapiens, MDA-MB-231): 1.75 µM
CC50 (MDA-MB-231/ATCC; Homo sapiens, MDA-MB-231, read-out: LC 50%): 9.52 µM
GI 100% (MDA-MB-231/ATCC; MDA-MB-231/ATCC, Breast Cancer): 4.09 µM
GI50 (MDA-MB-435; Homo sapiens, MDA-MB-435): 2.21 µM
CC50 (MDA-MB-435; Homo sapiens, MDA-MB-435, read-out: LC 50%): 9.07 µM
GI 100% (MDA-MB-435; MDA-MB-435, Breast Cancer): 4.38 µM
GI 100% (BT-549): 3.27 µM
GI50 (BT-549): 1.49 µM
CC50 (BT-549): 7.21 µM
degree of selectivity against HRAS^G12V [3]: 4-8 fold

COCCOC(=O)C1=C(C)NC2=C(C(=O)CC(c3ccc(Cl)cc3)C2)C1c1ccccc1F (stereo not shown) [Compound 3]
IC90 [1]: 10 µg/mL (≈ 21.3 µM)
activity in KRAS-mutation-harboring cancer cells (in words) [2]: less activity
GI 100% (786-0): >10 µM
GI50 (786-0): 9.27 µM
CC50 (786-0): > 10 µM
GI 100% (A498; A498, Renal Cancer): >10 µM
GI50 (A498; Homo sapiens, A498): 3.39 µM
CC50 (A498; Homo sapiens, A498, read-out: LC 50%): > 10 µM
GI 100% (NCI/ADR-RES; Breast Cancer): >10 µM
GI50 (NCI/ADR-RES; Homo sapiens): 8.93 µM
CC50 (NCI/ADR-RES; Homo sapiens, read-out: LC 50%): > 10 µM
GI 100% (BT-549): >10 µM
GI50 (BT-549): 4.28 µM
CC50 (BT-549): > 10 µM
degree of selectivity against HRAS^G12V [3]: 4-8 fold
